{"source": "patent US8399672B2", "about": "“Compound having affinity for amyloid” (Nihon Medi-Physics Co., Ltd., priority 2007, dated 2013)", "key": {"[1]": {"conditions": "rats, [11C]-labeled; cited from earlier work"}, "[2]": {"target": "T1, amyloid in brain (aggregated Aβ1-42 injected into amygdaloid nucleus) (Homo sapiens, UniProt P05067)", "T1 construct": "Aβ1-42 (manufactured by Wako); purchased Wako", "T1 sequence (P05067 672-713 limits assumed)": "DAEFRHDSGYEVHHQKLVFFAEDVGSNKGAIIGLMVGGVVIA", "test": "Confirmation of binding to amyloid in brain (in vitro autoradiogram of brain slice)", "design": "species or system male Wistar rat", "conditions": "rat brain slice immersed in sample solution (0.1 MBq/mL)", "procedure": "(1) Aβ1-42 (manufactured by Wako) was dissolved in phosphate buffer (pH 7.4) and shaken at 37° C. for 72 hours, to obtain a 1 mg/mL suspension of aggregated Aβ (hereinafter referred to as amyloid suspension in the present Example).\n(2) Under thiopental anesthesia, the […] of the amyloid suspension was injected into an amygdaloid nucleus on one side of a male Wistar rat (7-week old). As a control, 2.5 μL of a phosphate buffered physiological saline solution (pH 7.4) was injected into an amygdaloid nucleus on the other side of the rat. A brain was removed from the rat a day after the injection of an amyloid suspension and a phosphate buffered physiological saline solution (pH 7.4) to prepare a brain slice of 10 μm in thickness with a microtome (type: CM3050S, manufactured by LEICA).\n(3) Compound 6 in diethylether solution was diluted with a 1% bovine serum albumin/phosphate buffer (hereinafter referred to as 1% PB/BSA in the present Example) to obtain a sample solution (0.1 MBq/mL in radioactivity concentration). […]\n(5) After the completion of the image analysis using the Bio-imaging Analyzer, pathological staining with Thioflavin T was carried out to perform imaging by use of a fluorescence microscope (manufactured by NIKON Corporation; type: TE2000-U model; excitation wavelength: 400-440 nm; detection wavelength: 470 nm). […]"}, "[3]": {"conditions": "reported in WO03/106439; cited from earlier work"}, "[4]": {"conditions": "[125I]-labeled compounds; cited from earlier work"}, "[5]": {"tested_on": "Salmonella typhimurium TA100", "test": "Reverse mutation test (Ames test), strain TA100", "assay_type": "cell-based", "procedure": "(§1) In order to examine gene mutagenicity of Compound 5, reverse mutation test using Salmonella typhimurium TA98 and TA100, TA1535, TA1537 and Escherichia coli WP2uvrA (hereinafter referred to as Ames test) was conducted.\n(§2) The test was conducted without addition of S9mix and with addition of S9mix. Dimethylsulfoxide (DMSO) was used as a negative control.\n(§3) As a sample solution to be added to a test plate, a 50 mg/mL solution of Compound 5 in DMSO and solutions obtained by diluting this solution with DMSO to have various concentrations were prepared. For positive control without addition of S9mix, when TA98 was used as a test strain, a solution of AF-2 (compound concentration: 1 μg/mL) in DMSO was prepared and used as a sample solution; when TA100 or WP2uvrA was used as a test strain, a solution of AF-2 (compound concentration: 0.1 μg/mL) in DMSO was prepared and used as a sample solution; when TA1535 was used as a test strain, a solution of NaN3 (compound concentration: 5 μg/mL) in water for injection was prepared and used as a sample solution; and when TA1537 was used as a test strain, a solution of 9AA (compound concentration: 800 μg/mL) in DMSO was prepared and used as a sample solution. […]"}, "[6]": {"tested_on": "Salmonella typhimurium TA1535", "test": "Reverse mutation test (Ames test), strain TA1535", "assay_type": "cell-based", "procedure": "as §1, §2, §3"}, "Escherichia coli WP2uvrA": {"tested_on": "Escherichia coli WP2uvrA", "test": "Reverse mutation test (Ames test), strain WP2uvrA", "assay_type": "cell-based", "procedure": "as §1, §2, §3"}, "[7]": {"tested_on": "Salmonella typhimurium TA98", "test": "Reverse mutation test (Ames test), strain TA98", "assay_type": "cell-based", "procedure": "as §1, §2, §3"}, "[8]": {"tested_on": "Salmonella typhimurium TA1537", "test": "Reverse mutation test (Ames test), strain TA1537", "assay_type": "cell-based", "procedure": "as §1, §2, §3"}, "[9]": {"tested_on": "Salmonella typhimurium TA98 and TA100, TA1535, TA1537 and Escherichia coli WP2uvrA", "test": "Reverse mutation test (Ames test), overall judgment over all strains", "assay_type": "cell-based", "procedure": "as §1, §2, §3"}}, "note": "Read-outs that look alike come from different tables or passages of the source.", "data": [{"compound": "CNc1ccc(/C=C/c2ccc(O)cc2)cc1", "note": "[SB-13, (E)-4-methylamino-4′-hydroxystilbene]", "values": [{"measurement": "Clearance from normal tissues", "setting": "[1]", "result": "shows a clearance from normal tissues"}]}, {"compound": "COc1cc(OCCO)ccc1-c1cn2cc([123I])ccc2n1", "values": [{"measurement": "Binding to intracerebral amyloid", "setting": "[2]", "result": "property of binding to intracerebral amyloid"}]}, {"compound": "CN(C)c1ccc(-c2cn3cc(I)ccc3n2)cc1", "note": "[IMPY, 6-iodo-2-[4′-(N,N-dimethylamino)phenyl]imidazo[1,2-a]pyridine]", "values": [{"measurement": "Result in reverse mutation test", "setting": "[3]", "result": "positive"}, {"measurement": "Clearance from normal tissues", "setting": "[4]", "result": "rapid clearance from normal tissues"}]}, {"compound": "COc1ccc2nc(-c3ccc(OCCCF)c(I)c3)cn2c1", "note": "[Compound 5, 2-[4′-(3″-fluoropropoxy)-3′-iodophenyl]-6-methoxyimidazo[1,2-a]pyridine]", "values": [{"measurement": "Mutagenicity, TA100", "setting": "[5]; with addition of S9mix", "result": "Negative"}, {"measurement": "Mutagenicity, TA100", "setting": "[5]; without addition of S9mix", "result": "Negative"}, {"measurement": "Mutagenicity, TA1535", "setting": "[6]; with addition of S9mix", "result": "Negative"}, {"measurement": "Mutagenicity, TA1535", "setting": "[6]; without addition of S9mix", "result": "Negative"}, {"measurement": "Mutagenicity, WP2uvrA", "setting": "Escherichia coli WP2uvrA; with addition of S9mix", "result": "Negative"}, {"measurement": "Mutagenicity, WP2uvrA", "setting": "Escherichia coli WP2uvrA; without addition of S9mix", "result": "Negative"}, {"measurement": "Mutagenicity, TA98", "setting": "[7]; with addition of S9mix", "result": "Negative"}, {"measurement": "Mutagenicity, TA98", "setting": "[7]; without addition of S9mix", "result": "Negative"}, {"measurement": "Mutagenicity, TA1537", "setting": "[8]; with addition of S9mix", "result": "Negative"}, {"measurement": "Mutagenicity, TA1537", "setting": "[8]; without addition of S9mix", "result": "Negative"}, {"measurement": "Judgment in the Ames test (mutagenicity)", "setting": "[9]; all strains, with and without S9mix", "result": "negative"}, {"measurement": "Number of reverse mutation colonies relative to the negative control", "setting": "[9]; regardless of addition of S9mix and addition amount", "result": "less than two times"}]}]}
